In patent US20070191493A1, “Use of n-alkanols as activators of the cftr channel” (priority 2003, published 2007):
pEC50: −log10 of the molar value. Where two headings read alike, the source gives them in different places.

Experiments:
CFTR channel [1] = target: T1, CFTR channel (Homo sapiens, UniProt P13569); test: whole-cell patch-clamp in CHO-BQ1 cells, reversibility after washing; type: cell-based; set-up: expressed in transfected cells; host or cells: CHO-BQ1 cells; settings: octan-1-ol 1 mM, washing 15 min with physiological saline
Experimental: More specifically, culture dishes (cell support) are placed in an experimentation cell (volume 1 ml) on the platform of an inverted microscope (Nikon) equipped with phase-contrast lighting. The whole-cell configuration is used for recording the cell currents (Hamill et al., 1981). The experiments are carried out at ambient temperature (20-22° C.). The currents are amplified with an Axopatch 200B amplifier (Axon Instrument Ltd) having a 2-5 kHz low-pass filter (Bessel 6-pole filter), and recorded on the hard disk of a PC after digitization at 10-25 kHz. The pipettes are produced from glass tubes 1 mm in diameter (Clark Electromedical Instrument) in four steps with a horizontal drawing device (Bruwn Flaming 97, CA).
The pipettes, filled with an intracellular solution containing, in mM: 60 KCl; 80 NMDG ([…]); 10 HEPES; 5 EGTA; 1 CaCl2; 4 MgATP; 0.2 Na3GTP; pH 7.4, titrated with KOH), having a resistance of 5 MΩ. The potentials are expressed as the difference between the potential of the patch electrode and that of the bath. In the whole-cell configuration, they represent the membrane potential of the cell. […] The current-voltage relationships in the stationary state are determined using slow voltage ramps (20 mV/.s) under an imposed voltage condition. […]

CFTR channel [2] = target: T1, CFTR channel; test: 125I radioactive iodide efflux in CHO-CFTR(+) cells; type: cell-based; set-up: expressed in transfected cells; host or cells: CHO (Chinese hamster ovary) cells, CHO-CFTR(+)
Experimental: The cells are cultured in 24-well plates with a dilution to 1/10 after passage. […] The operation is repeated every 30 s for 2 to 6 min. […] All the samples are counted in a gamma counter (Kontron). The precipitated proteins are solubilized in 0.1N NaOH and quantified using a calorimetric test.
The tracer contained in the cell layer at the beginning of the efflux is calculated as the sum of the samples and of the extracts counted. The efflux curves are constructed by expressing the percentage of the content remaining in the cell layer (I %) with respect to time. The stimulated or nonstimulated efflux rate constants (k, min^−1) are determined by smoothing the efflux curves to a monoexponential function I %=100*exp(−kt) using a linear regression of the neperian logarithm of the data, k is used to calculate the iodide released into the medium with respect to time. The hypothesis is made that, in the presence of a stimulator, the efflux is the sum of two iodide effluxes occurring in parallel: a basal efflux and a stimulated efflux characterized, respectively, by the constants kb and ks. The total net efflux is then described by the equation It^%=100*(1−exp(−ktt)) where kt is the sum of kb and ks. Finally, ks calculated as kt−kb is used to establish a dose-response relationship for antagonists. The data is expressed as means ±SD, and the t-test is used to determine the significances. The concentration-response curves for agonists or for antagonists are smooth using the hyperbolic equation Y=Ymax*X/(EC5C+X), where Y is the response. Y begins at the basal level and progresses to the plateau (Ymax), X is the concentration and the half-effect values (EC are calculated using GraphPad Prism v3.0 (GraphPad software)).

T1 sequence (P13569 whole entry): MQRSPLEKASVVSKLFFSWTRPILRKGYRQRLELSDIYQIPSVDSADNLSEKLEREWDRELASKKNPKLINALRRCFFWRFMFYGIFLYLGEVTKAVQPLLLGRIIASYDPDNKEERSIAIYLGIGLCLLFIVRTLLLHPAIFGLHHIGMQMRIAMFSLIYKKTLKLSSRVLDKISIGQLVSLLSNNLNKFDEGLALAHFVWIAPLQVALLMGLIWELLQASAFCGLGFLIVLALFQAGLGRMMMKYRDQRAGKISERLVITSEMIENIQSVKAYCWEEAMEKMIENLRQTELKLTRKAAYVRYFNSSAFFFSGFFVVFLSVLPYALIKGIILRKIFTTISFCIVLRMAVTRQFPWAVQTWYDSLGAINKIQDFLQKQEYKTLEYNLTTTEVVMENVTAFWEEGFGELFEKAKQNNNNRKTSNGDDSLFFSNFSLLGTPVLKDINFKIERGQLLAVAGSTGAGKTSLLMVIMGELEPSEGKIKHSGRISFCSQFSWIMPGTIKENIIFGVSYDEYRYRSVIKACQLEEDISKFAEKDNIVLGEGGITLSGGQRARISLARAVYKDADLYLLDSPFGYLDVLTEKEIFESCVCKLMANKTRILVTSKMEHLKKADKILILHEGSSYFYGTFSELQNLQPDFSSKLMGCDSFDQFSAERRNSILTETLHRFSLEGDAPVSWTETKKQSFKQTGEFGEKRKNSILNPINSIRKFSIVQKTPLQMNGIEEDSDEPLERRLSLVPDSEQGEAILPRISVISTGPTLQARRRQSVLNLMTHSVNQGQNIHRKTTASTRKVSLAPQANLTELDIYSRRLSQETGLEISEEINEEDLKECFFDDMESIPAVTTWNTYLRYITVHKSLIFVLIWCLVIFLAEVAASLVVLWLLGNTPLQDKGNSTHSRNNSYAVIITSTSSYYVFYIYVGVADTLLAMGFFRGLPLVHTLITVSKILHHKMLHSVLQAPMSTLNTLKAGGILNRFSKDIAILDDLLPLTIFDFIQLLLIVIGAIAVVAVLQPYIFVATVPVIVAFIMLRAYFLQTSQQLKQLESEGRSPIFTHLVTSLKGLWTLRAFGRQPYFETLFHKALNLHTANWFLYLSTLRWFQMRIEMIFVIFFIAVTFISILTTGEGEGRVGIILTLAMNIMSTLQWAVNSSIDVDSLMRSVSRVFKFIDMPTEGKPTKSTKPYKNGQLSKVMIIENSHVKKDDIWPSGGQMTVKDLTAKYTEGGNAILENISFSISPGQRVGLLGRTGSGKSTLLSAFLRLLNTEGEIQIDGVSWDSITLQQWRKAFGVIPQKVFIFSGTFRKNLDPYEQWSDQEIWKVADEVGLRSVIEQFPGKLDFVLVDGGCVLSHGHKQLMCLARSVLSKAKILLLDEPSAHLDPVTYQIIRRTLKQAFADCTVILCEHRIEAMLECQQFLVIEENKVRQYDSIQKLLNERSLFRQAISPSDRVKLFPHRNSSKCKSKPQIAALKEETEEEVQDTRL

reversibility of the activating effect on CFTR (CFTR channel [1]): reversible
concentration at which plateau of CFTR activation is reached (CFTR channel [2]; CHO-CFTR(+) cells): 1 mM
activation of CFTR (125I efflux), in words (CFTR channel [2]; CHO-CFTR(+) cells, n-alkanols 1 mM, FSK 1 μM, A23187 2 μM, α-GA 10 and 100 μM): increase in activation of CFTR
pEC50 (CFTR channel [2]; CHO-CFTR(+) cells, read-out: half-activation dose): 3.30
pEC50 (CFTR channel [2]; EC50 of activation of CFTR (125I efflux rate constant), CHO-CFTR(+) cells, octan-1-ol 0.1 to 5 mM): ~3.30
SMILES: CCCCCCCCO [octan-1-ol]
order of activation of CFTR by n-alkanols (CFTR channel [2]; 1 mM, 125I efflux or patch-clamp): hexan-1-ol<heptan-1-ol<octan-1-ol<octan-2-ol<decan-1-ol
